Laboratory results: publication PMC6348444, “New Water-Soluble Copper(II) Complexes with Morpholine–Thiosemicarbazone Hybrids: Insights into the Anticancer and Antibacterial Mode of Action” (Journal of Medicinal Chemistry, 2018)

How the values were obtained:
A2780 cells = test: Cellular accumulation of Cu by ICP-MS; type: cell-based, human; conditions: 24 h exposure, 1 μM
Text: The ability of anticancer drugs to penetrate biological membranes, tissues, and barriers underlies their biological, pharmacokinetic, and metabolic properties. These properties can be predicted by calculating physicochemical characteristics of drug candidates using molecular descriptors.[30] […] The results are shown in Table S7 in the Supporting Information. On the basis of the calculated physicochemical parameters, we determined if novel compounds belonged to the drug-like chemical space, which is commonly defined by the well-known Lipinski rule, or to the known drug space (KDS), which includes all small compounds in medical use.[31] […] Following the calculations, we determined the lipophilicity of all compounds experimentally (log D7.4, Tables 1 and 2). It is known that cancer cells accumulate hydrophilic compounds to a smaller extent relative to hydrophobic compounds, thereby affecting their activity. […] As expected, proligands were more lipophilic than the corresponding Cu(II) species, which are positively charged at physiological pH (Figure 3b). […] The lipophilicity of 2–5 increased in the following order 4 < 2 < 3 < 5, and correlated well with their cytotoxicity in cancer cells, with the exception of 3. Subsequently, we determined the total cellular accumulation of Cu in A2780 cells by ICP–MS upon 24 h exposure to 1–6 in comparison with CuCl2 (Table 2). […] The accumulation increased in the order 6 < 1 < 3 < 4 < 2 < 5.
Cellular accumulation of 1–6 was determined in A2780 cells. Cells were seeded into Cellstar 6-well plates (Greiner Bio-one) at a density of 60 × 10^4 cells/well (2 mL per well). After the cells were allowed to resume exponential growth for 24 h, they were exposed to 1–6 at 1 μM for 24 h at 37 °C. The cells were washed twice with 1 mL of PBS and lysed with RIPA lysis buffer for 5–10 min at 4 °C. The cell lysates were scraped from the wells and transferred to separate 1.5 mL microtubes. The supernatant was then collected after centrifugation (13 000 rpm, 4 °C for 15 min) and total protein content of each sample was quantified via Bradford’s assay. Cell lysates were transferred to 2 mL glass vials and then digested with ultrapure 65% HNO3 at 100 °C for 24 h. The resulting solution was diluted to 1 mL (2–4% v/v HNO3) with ultrapure Milli-Q water. Cu content of each sample was quantified by ICP–MS. In was used as an internal standard. Cu and In were measured at m/z 64 and m/z 115, respectively. Metal standards for calibration curve (0, 0.5, 1, 2, 5, 10, 20, and 40 ppb) were freshly prepared before each measurement. All readings were made in triplicates in He mode. For temperature-dependent cellular accumulation experiments, A2780 cells were seeded into 35 n 10 mm tissue culture plates at a density of 60 0 10^4 cells/plate. After the cells were allowed to resume exponential growth for 24 h, they were exposed to 2 at 3 μM for 10, 30, 60, and 120 min at 37 and 4 °C. The subsequent analysis was performed as described above. For energy-dependent experiments, A2780 cells were seeded into 35 5 10 mm tissue culture plates at a density of 1 0 10^6 cells/plate. After the cells were allowed to resume exponential growth for 24 h, they were preincubated with oligomycin (5 μM) for 1 or 4 h or with cycloheximide (100 μM) for 4 h and further co-incubated with 3 μM of 2 at 37 °C. To induce total starvation, after the cells were allowed to resume exponential growth for 24 h, RPMI media was replaced with HBSS, and cells were preincubated in HBSS for 1 h and further incubated with 3 μM of 2 for 1 h at 37 °C. The subsequent analysis was performed as described above.

[1] = system: Pseudomonas aeruginosa PAO1 CECT 4122 (ATCC 15692); test: MIC microdilution, P. aeruginosa; type: cell-based; conditions: planktonic cells; for P. aeruginosa MIC50: growth inhibited at 50%; for P. aeruginosa MIC100: lowest concentration completely inhibiting growth
Protocol: (§1) Wild-type P. aeruginosa PAO1 strain CECT 4122 (ATCC 15692) and S. aureus CECT 86 (ATCC 12600) were obtained from the Spanish Type Culture Collection (CECT). All strains were routinely cultivated in TSB medium (Sharlab, Spain) at 37 °C. MIC assays were determined by the microdilution method using TSB broth following the method described by the Clinical and Laboratory standards Institute.[94] In brief, compounds were diluted in a 96-well microtiter plate (tissue culture-treated polystyrene; […]

[2] = Cyclic voltammetry, redox potentials; type: physicochemical; conditions: first reduction step
Protocol: To assess the redox properties of 1-6, detailed electrochemical and spectroscopic studies in various solvents were performed using cyclic voltammetry as well as EPR-spectroelectrochemistry. Additionally, the UV-vis spectra of 1-5 were measured (Figure S8). […] The second reduction step occurred at -1.8 V versus Fc^+/Fc (-1.16 V vs NHE) and was less reversible, indicating a ligand-based reduction. […] In aqueous solutions, the reduction potentials shifted to the less negative values, and reduction was less reversible as shown for 2 in Figure S10. […] Cyclic voltammetric experiments were performed as described previously.[46] The cyclic voltammograms were measured in the cathodic region in different solvents (DMSO, methanol, DMSO/H2O). The analytical purity grade LiClO4 (Sigma-Aldrich) and distilled and deionized water were used for preparation of 1 mM aqueous solutions of the investigated complexes 1-6. EPR spectra were recorded with the EMX plus. In situ UV-vis-NIR spectroelectrochemical measurements were performed on a spectrometer (Avantes, Model AvaSpec-2048x14-USB2 in the spectroelectrochemical cell kit ([…]3)) with the Pt-microstructured honeycomb working electrode, purchased from Pine Research Instrumentation. The cell was positioned in the CUV-UV Cuvette Holder (Ocean Optics) connected to the diode-array UV-vis-NIR spectrometer by optical fibers. UV-vis-NIR spectra were processed using the AvaSoft 7.7 software package. Halogen and deuterium lamps were used as light sources (Avantes, Model AvaLight-DH-S-BAL). The in situ EPR spectroelectrochemical experiments were carried out under an argon atmosphere in the EPR flat cell equipped with a large platinum mesh working electrode. The freshly prepared solutions were carefully purged with argon and the electrolytic cell was polarized in the galvanostatic mode directly in the cylindrical EPR cavity TM-110 (ER 4103 TM), and the EPR spectra were measured in situ.

[3] = system: Staphylococcus aureus CECT 86 (ATCC 12600); test: MIC microdilution, S. aureus; type: cell-based; conditions: planktonic cells; for S. aureus MIC50: growth inhibited at 50%; for S. aureus MIC100: lowest concentration completely inhibiting growth
Protocol: as §1

Solubility in water = type: physicochemical; conditions: sterile water stock solutions
Protocol: Human ovarian carcinoma cells A2780 and A2780cisR and human embryonic kidney HEK293 were obtained from ATCC. A2780 and A2780cisR cells were cultured in RPMI 1640 medium containing 10% FBS. HEK293 were cultured in DMEM medium containing 10% FBS. All cells were grown in tissue culture 25 cm^2 flasks (BD Biosciences, Singapore) at 37 °C in a humidified atmosphere of 95% air and 5% CO2. All drug stock solutions were prepared in sterile water. The amount of Cu was determined by ICP–OES.

| SMILES | cellular accumulation A2780 (A2780 cells) [nmol Cu/mg protein] | P. aeruginosa MIC50 [1] [µg/mL] | P. aeruginosa MIC100 [1] [µg/mL] | E1/2 Red1 (DMSO) vs Fc+/Fc ([2]; vs Fc+/Fc) | E1/2 Red1 (DMSO) vs NHE ([2]; vs NHE (in brackets)) | E1/2 Red1 (MeOH) vs Fc+/Fc ([2]; vs Fc+/Fc) | E1/2 Red1 (MeOH) vs NHE ([2]; vs NHE (in brackets)) | S. aureus MIC50 [3] [µg/mL] | S. aureus MIC100 [3] [µg/mL] | solubility in water (Solubility in water) [µM] | E1/2 Red1 (H2O) vs Fc+/Fc ([2]; H2O, vs Fc+/Fc) | E1/2 Red1 (H2O) vs NHE ([2]; H2O, vs NHE (in brackets)) |
| --- | --- | --- | --- | --- | --- | --- | --- | --- | --- | --- | --- | --- |
| [Cl][Cu][S]C(=NN=Cc1ccc(CN2CCOCC2)cn1)Nc1ccccc1 [complex 5, [Cu(L^5)Cl]] | 4.1 ± 0.9 | 200 | 450 | –0.77 V | –0.13 V | –0.48 V | +0.16 V | 3 | 10 | ≤ 2000 |  |  |
| CN(C)C(=NN=Cc1ccc(CN2CCOCC2)cn1)[S][Cu][Cl] [complex 2, [Cu(L^2)Cl]] | 3.9 ± 0.6 | 70 | 200 | –0.80 V | –0.16 V | –0.54 V | +0.10 V | 2 | 10 | ≤ 2000 | –0.52 V | +0.12 V |
